ChEMBL document CHEMBL1144639, “Imidazo[1,2-a]pyridines with potent activity against herpesviruses” (Bioorg Med Chem Lett, 2007)

What was measured:
[1] = Cytotoxicity against Vero cells; type: cell-based; settings: chlorocebus sabaeus
Human alphaherpesvirus 1 = test: Antiviral activity against HSV1 SC16 in Vero cells by capture hybrid method; type: functional, organism-based; settings: Human alphaherpesvirus 1, SC16, Vero

Structure (SMILES)	CC50 [1]	IC50 (Human alphaherpesvirus 1)
Cc1cccn2c(-c3ccnc(NC4CCCC4)n3)c(-c3ccc(F)cc3)nc12	> 40000 nM	1530 nM
Fc1ccc(-c2nc3c(NC4CCCC4)cc(Cl)cn3c2-c2ccnc(NC3CCCC3)n2)cc1	> 40000 nM	370 nM
Fc1ccc(-c2nc3c(NC4CCCC4)cc(Br)cn3c2-c2ccnc(NC3CCCC3)n2)cc1	> 40000 nM	220 nM
CCCCNc1cc(Br)cn2c(-c3ccnc(NC4CCCC4)n3)c(-c3ccc(F)cc3)nc12	> 40000 nM	300 nM
Fc1ccc(-c2nc3c(NC4CCCC4)cccn3c2-c2ccnc(NC3CCCC3)n2)cc1	> 40000 nM	590 nM
COc1ccc(-c2nc3c(NC4CCCC4)cccn3c2-c2ccnc(NC3CCCC3)n2)cc1	> 10000 nM	480 nM
Cc1cc(NC2CC2)cn2c(-c3ccnc(NC4CCCC4)n3)c(-c3ccc(F)cc3)nc12	> 40000 nM	120 nM
Oc1ccc(-c2nc3c(NC4CCCC4)cccn3c2-c2ccnc(NC3CCCC3)n2)cc1	> 40000 nM	3400 nM
COc1cccc(-c2nc3c(Cl)cccn3c2-c2ccnc(NC3CCCC3)n2)c1	> 40000 nM	1730 nM
COc1cccc(-c2nc3c(NC4CCCC4)cccn3c2-c2ccnc(NC3CCCC3)n2)c1	> 40000 nM	710 nM
Oc1cccc(-c2nc3c(NC4CCCC4)cccn3c2-c2ccnc(NC3CCCC3)n2)c1	> 40000 nM	3130 nM
N#Cc1ccc(-c2nc3c(NC4CCCC4)cccn3c2-c2ccnc(NC3CCCC3)n2)cc1	> 40000 nM	320 nM
N#Cc1cccc(-c2nc3c(NC4CCCC4)cccn3c2-c2ccnc(NC3CCCC3)n2)c1	> 40000 nM	360 nM
Cc1ccc(-c2nc3c(NC4CCCC4)cccn3c2-c2ccnc(NC3CCCC3)n2)cc1	> 40000 nM	1610 nM
Fc1ccc(-c2nc3c(NC4CC4)cccn3c2-c2ccnc(NC3CCCC3)n2)cc1	33000 nM	510 nM
Fc1ccc(-c2nc3c(N4CCCC4)cccn3c2-c2ccnc(NC3CCCC3)n2)cc1	> 40000 nM	1880 nM
COCCNc1cccn2c(-c3ccnc(NC4CCCC4)n3)c(-c3ccc(F)cc3)nc12	> 40000 nM	260 nM

Structure (SMILES)	CC50 [1]	IC50 (Human alphaherpesvirus 1)
CNc1nccc(-c2c(-c3ccc(F)cc3)nc3c(Cl)cccn23)n1	> 40000 nM	9300 nM
Fc1ccc(-c2nn3c(NC4CCCC4)cccc3c2-c2ccnc(NC3CCCC3)n2)cc1	> 160000 nM	–
Fc1ccc(-c2nc3ccc(Br)cn3c2-c2ccnc(NC3CCCC3)n2)cc1	> 40000 nM	4080 nM
Fc1ccc(-c2nc3ccc(NC4CCCC4)cn3c2-c2ccnc(NC3CCCC3)n2)cc1	> 40000 nM	330 nM
Cc1cc(Br)cn2c(-c3ccnc(NC4CCCC4)n3)c(-c3ccc(F)cc3)nc12	> 40000 nM	1160 nM
Cc1cc(NC2CCCC2)cn2c(-c3ccnc(NC4CCCC4)n3)c(-c3ccc(F)cc3)nc12	> 40000 nM	150 nM
Fc1ccc(-c2nc3c(NC4CCCC4)cccn3c2-c2ccnc(NC3CCCC3)c2)cc1	> 40000 nM	–
c1cc(NC2CCCC2)c2nc(-c3ccc(OCC4CC4)cc3)c(-c3ccnc(NC4CCCC4)n3)n2c1	> 40000 nM	270 nM
C=CCOc1cccc(-c2nc3c(NC4CCCC4)cccn3c2-c2ccnc(NC3CCCC3)n2)c1	> 40000 nM	300 nM
COc1ccc(-c2nc3c(Cl)cccn3c2-c2ccnc(NC3CCCC3)n2)cc1	30100 nM	1430 nM
C=CCOc1ccc(-c2nc3c(NC4CCCC4)cccn3c2-c2ccnc(NC3CCCC3)n2)cc1	> 40000 nM	570 nM
Fc1ccc(-c2nc3c(Cl)cc(Cl)cn3c2-c2ccnc(NC3CCCC3)n2)cc1	> 40000 nM	1110 nM
CCCCNc1cccn2c(-c3ccnc(NC4CCCC4)n3)c(-c3ccc(F)cc3)nc12	32000 nM	800 nM
CNc1nccc(-c2c(-c3ccc(F)cc3)nc3c(NC4CCCC4)cccn23)n1	> 40000 nM	> 5000 nM
Fc1ccc(-c2nc3c(Br)cc(Br)cn3c2-c2ccnc(NC3CCCC3)n2)cc1	> 40000 nM	800 nM
Fc1ccc(-c2nc3ccccn3c2-c2ccnc(NC3CCCC3)n2)cc1	> 40000 nM	3300 nM
Nc1nc2c(ncn2COCCO)c(=O)[nH]1 [ACYCLOVIR]	> 200000 nM	–
